Measured values reported in US12012415B2, “Compositions and methods for the diagnosis, treatment and prevention of neoplastic and neurological disorders” (AscentGene, Inc., priority 2018, dated 2024).

Experiments:
[1] = test system: Rat glioblastoma cell lines C6; test: Cell growth of glioblastoma cell line C6; format: cell-based; conditions: cell growth rate from number of live cells
Experimental: (§1) Rat glioblastoma cell lines C6 (A) and human non-small cell lung cancer cell line H841 (B) were grown in the proper medium and treated with different concentration of drug candidate AG-1031 (P) and AG-1503 (#3). Cell growth rate was calculated based on the number of live cells as compared to concentration in M of selected small molecules of the invention (see FIGS. 6A and 6B).

[2] = test system: human non-small cell lung cancer cell line H841; test: Cell growth of NSCLC cell lines; format: cell-based; conditions: cell growth rate from number of live cells
Experimental: as §1

[3] = test system: NR2A, NR2B, PSD-95 and SYP; test: Western blot of synaptic proteins in hippocampal fractions, Aβ1-42 AD rat model; format: in vivo, rats
Experimental: Aβ1-42 (Sigma-Aldrich, St. Louis, MO, USA;) was dissolved in double-distilled water at the concentration of 5 μg/μl, and incubated at 37° C. for one week before surgery. The rats were randomly divided into four groups as Sham (n=8), Sham+AG-1601 (n=8), Aβ1-42 (n=8) and Aβ1-42+AG-1601 (n=8). The Alzheimer's disease rat models were established by intracerebroventricular (i.c.v.) injection of Aβ1-42 aggregates. The animals were anesthetized with intraperitoneal injection of pentobarbital sodium (50 mg/kg) and placed in a stereotaxic apparatus (Narishige, Japan). The head skin of the rat was opened and two small holes were drilled on both sides of skull following the coordinates: 0.8 mm posterior to bregma, +1.4 mm lateral to sagittal suture, 4.0 mm beneath the surface of brain. Aβ1-42 (2.0 μl per side) was injected bilaterally into the lateral ventricles through micro-syringe. The needle was taken out after 5 minutes of the injection to ensure the aggregates were infused completely. Rats in the Sham group underwent the same operational process, but same volumes of double-distilled water were injected instead of Aβ1-42. After surgery, all rats were injected with penicillin (100,000 U) in the hindquarter muscle to prevent infection. The animals of Sham+AG-1601 and Aβ1-42+AG-1601 groups were intravenous injection with AG-1601 (1 mg/kg), while the same volume vehicle was implemented for the other groups every day for 14 days after one week of the postoperative recovery.
Three rats of each group were randomly selected to be sacrificed and their hippocampal tissues were immediately removed at 0° C. and stored at minus 80° C. For subcellular fractionation, 100- to 200-mg weight rat hippocampal tissue was used. The procedure has been described (Yang et al., 2017). The tissues were homogenized for 30 s in 500 μl TEVP buffer containing 320 mM sucrose and the homogenate was obtained. The homogenate (H) was centrifuged at 900×g for 10 min at 4° C., and the supernatant (S1) was centrifuged for 20 min at 10000×g at 4° C. to obtain the cytosolic/light membrane fraction (S2) and the crude synaptosomal fraction pellet (P2). The pellet was resuspended in TEVP buffer containing 35.6 mM sucrose solution and then centrifuged at 25,000×g for 20 min at 4° C. The supernatant was stored at minus 80° C. and referred as the synaptic vesicular fraction (LS1). The pellet, synaptic plasma membranes (LP1), was resuspended in TEVP buffer containing 1% Triton X-100 and centrifuged at 330,000×g for 30 min at 4° C. The supernatant referred as Triton X-100-soluble fraction (TSF) was stored at minus 80° C. The final pellet, the Triton X-100-insoluble fraction (TIF), was homogenized in TEVP buffer containing 1% SDS.
The concentration of every component was measured by the BCA protein assay kit (Beyotime Biotechnology, China). The components were finally boiled with 4× loading buffer at 100° C. for 15 min and stored at minus 80° C. for Western blot assay.
The total homogenate (H) and synaptosomal fractions were analyzed. Equal amounts of 20 μg from each sample were separated via 10% or 13% SDS-PAGE gels and subsequently transferred onto PVDF membranes (Millipore, USA). The membranes were blocked with 5% nonfat dry milk for 1 h at room temperature and then incubated with primary antibodies (Anti-synaptophysin, 1: 1000, Abcam; Anti-NR 2A, 1: 2000, Abcam; Anti-NR 2B, 1: 2000, Abcam; Anti-PSD-95, 1: 2000, Abcam; Anti-CREB, 1: 2000,Abcam; Anti-CREB phosphorylation, 1: 2000, Abcam; Anti-SIRT1, 1: 2000, Santa Cruz Biotechnology; Anti-β-actin, 1:5000, Santa Cruz Biotechnology) overnight at 4° C. Membranes were then incubated for 1 h at room temperature with horseradish peroxidase-conjugated secondary antibodies (Promega). After washing with TBST buffer, signals were visualized with the HRP substrate (Millipore, USA) and detected with a chemiluminescence kit (Tanon 5500, Tanon Science & Technology, China). The gray-scale value of protein band was quantified by NIH Image J program. […]

SF295 xenograft tumor = test: SF295 GBM xenograft mice model; format: in vivo; conditions: 150 μg/mice IP every other day, 28 days
Experimental: Female SHO mice (Crl:SHO-Prkdescid Hr/6-8 weeks) were purchased from Charles River. Human glioblastoma cell line SF295 cells were injected subcutaneously on the right flank of 8 week female SHO mice (3×10^6/per mice), tumor appears around one week (day 7) post inoculation. When the tumor size reaches the volume of 100 mm^3, total 12 mice were randomly divided to two groups (Treatment & Vehicle). 100 μl of 1.5 μg/μl of AG-1601 (total 150 μg/mice) was injected via IP to each mouse in the Treatment Group every other day for total 28 days; the same volume of H2O was injected to the mouse in the Vehicle Group. Tumor size measurement was evaluated using the digital calipers and tumor size was calculated using the following formula [mm^3=((L+W)/4)×((L+W)/4)×((L+W)/4)×4/3×3.14159], data are platted as relative mean tumor volume+/−standard error of the mean.

[4] = total homogenate (H), vs Aβ1-42 group

Structure (SMILES): C=CC1=C(C)c2cc3[nH]c(cc4nc(cc5[nH]c(cc1n2)c(C)c5C=C)C(C)=C4CCC(=O)O)c(CCC(=O)NCCCc1ccccc1)c3C [AG-1601, 3-(2,8,13,18-tetramethyl-3-(3-oxo-3-((3-phenylpropyl)amino)propyl)-12,17-divinylporphyrin-7-yl)propanoic acid]
- inhibition of growth of glioma cell line C6 [1]: even better inhibitory activity on growth of glioma cells compared to AG-1503
- inhibition of growth of NSCLC cell lines [2]: inhibiting growth of some NSCLC cell lines
- NR2A level ([3]; TIF fraction, vs Aβ1-42 group): increased
- NR2B level ([3]; TIF fraction, vs Aβ1-42 group): increased
- PSD-95 level ([3]; TIF fraction, vs Aβ1-42 group): increased
- SYP level ([3]; TSF fraction, vs Aβ1-42 group): also increased
- SYP expression ([3]; homogenates of hippocampal tissues, vs Aβ42 group): this effect was overcome
- NR2A level [3, 4]: increased
- NR2B level [3, 4]: increased
- PSD-95 level [3, 4]: this effect was overcome
- PSD-95 level ([3]; total homogenate (H), vs Aβ1-42 group, listed as AG-1061): increased
- efficacy on SF295 xenograft tumor (SF295 xenograft tumor): shows efficacy
